For 35 compounds, IC50 results are on record in patent US20070179161A1, “Pyrazolopyrimidine compounds and their use in medicine” (VERNALIS (CAMBRIDGE) LIMITED., priority 2003, published 2007).

Holding throughout (format): biochemical
The target of assay [1] is CDK-2 enzyme, complexed with cyclin A (Homo sapiens, UniProt P24941). The assay can be described thus: CDK2 enzyme inhibition assay (33P phosphorylation of peptide […], filter plate). The conditions noted are these: CDK-2/cyclin A, 0.1 mM ATP, 40 min at 30° C. In a few lines:
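Cyclin A–complexed CDK2 (0.4 U/ml) incubated with inhibitor, 0.03 mM peptide, 0.1 mM ATP plus 33P-γ-ATP in HEPES pH 7.5, 7.5 mM Mg acetate, 0.1 mg/ml BSA, 40 min at 30 °C. Stopped with phosphoric acid; phosphorylated peptide captured on filter plates and counted by scintillation.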

The next assay deals with T1, GST-Chk1 enzyme (Homo sapiens, UniProt O14757).
T1 sequence (O14757 1-476): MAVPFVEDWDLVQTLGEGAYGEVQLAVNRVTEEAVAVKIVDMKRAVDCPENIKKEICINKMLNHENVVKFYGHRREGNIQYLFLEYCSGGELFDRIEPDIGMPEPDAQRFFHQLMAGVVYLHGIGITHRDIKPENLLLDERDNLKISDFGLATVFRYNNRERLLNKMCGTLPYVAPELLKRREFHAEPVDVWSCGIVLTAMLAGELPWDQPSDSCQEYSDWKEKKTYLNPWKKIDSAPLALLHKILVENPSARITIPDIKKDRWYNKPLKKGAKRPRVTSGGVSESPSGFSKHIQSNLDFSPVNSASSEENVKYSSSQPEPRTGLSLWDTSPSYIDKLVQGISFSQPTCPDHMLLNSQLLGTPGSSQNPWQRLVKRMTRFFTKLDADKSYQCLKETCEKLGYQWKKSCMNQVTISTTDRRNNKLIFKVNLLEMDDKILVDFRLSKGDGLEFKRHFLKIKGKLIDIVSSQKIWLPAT
As to the kind of experiment: Chk1 kinase inhibition assay (33P phosphorylation of Chktide, filter plate). The conditions noted are these: 0.01 mM ATP, 11 nM GST-Chk1, 40 minutes at 30° C.; read-out: Chk1 IC50. A digest of the protocol:
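Inhibitor and enzyme reacted 40 min at 30 °C, then stopped with 50 mM phosphoric acid. Phosphorylated peptide captured on filter plates and quantified by scintillation counting.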

In the next assay the target is T2, PDK1 enzyme (Homo sapiens, UniProt O15530).
T2 sequence (O15530 1-556): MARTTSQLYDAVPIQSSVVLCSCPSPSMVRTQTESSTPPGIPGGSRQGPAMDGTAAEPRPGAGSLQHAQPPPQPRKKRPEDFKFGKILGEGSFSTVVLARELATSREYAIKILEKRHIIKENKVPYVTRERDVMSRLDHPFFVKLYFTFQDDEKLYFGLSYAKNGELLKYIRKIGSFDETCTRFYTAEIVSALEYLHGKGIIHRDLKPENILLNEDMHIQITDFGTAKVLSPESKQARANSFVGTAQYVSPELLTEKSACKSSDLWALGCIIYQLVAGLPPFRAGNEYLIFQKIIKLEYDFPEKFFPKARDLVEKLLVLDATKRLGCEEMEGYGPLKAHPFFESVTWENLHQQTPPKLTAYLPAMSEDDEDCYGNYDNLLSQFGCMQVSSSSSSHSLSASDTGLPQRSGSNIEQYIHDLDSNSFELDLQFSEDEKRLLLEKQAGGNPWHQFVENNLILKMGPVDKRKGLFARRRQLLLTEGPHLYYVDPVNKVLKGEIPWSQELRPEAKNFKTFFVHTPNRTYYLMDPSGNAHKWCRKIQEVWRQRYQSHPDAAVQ
The assay can be described thus: PDK1 kinase inhibition assay (33P phosphorylation of synthetic peptide, filter plate). The conditions noted are these: 0.01 mM ATP, 60 min at 30° C.; read-out: PDK1 IC50. In a few lines:
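PDK1 and inhibitor incubated 60 min at 30° C with 0.01 mM ATP plus 33P-γ-ATP, 0.075 mM peptide, 7.5 mM Mg acetate, 0.1 mg/ml BSA in 0.05 M Tris.HCl pH 7.5. Stopped with phosphoric acid; phosphorylated peptide captured on filter plate and counted by scintillation.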

The IC50 is the concentration that gives 50% inhibition. Take `CS(=O)(=O)c1ccc(Nc2cc(Cl)nc3c(Cc4ccccc4)cnn23)cc1` [Example 23]: the IC50 (in assay [1]; on GST-Chk1 enzyme; at PDK1 enzyme) was over 200 µM each time.

Turning to `CC(C)Oc1cc(Nc2ccc(S(=O)(=O)N(C)C)cc2)n2ncc(C(C)C)c2n1` [Example 64], the IC50 is 0.395 µM in assay [1], over 200 µM on GST-Chk1 enzyme and over 200 µM on PDK1 enzyme.

Turning to `N[C@H]1CC[C@H](Nc2cc(Nc3ccc(Sc4cccs4)cc3)n3ncc(Cl)c3n2)CC1` [Example 193], the figures for the 50% inhibitory concentration (IC50) (in assay [1]; on GST-Chk1 enzyme; on PDK1 enzyme) were 0.047 µM, 1.47 µM and 2.88 µM, respectively.

`CC(C)c1cnn2c(Nc3ccc(S(=O)(=O)N(C)C)cc3)cc(N3CCC(CN(C)C)CC3)nc12` [Example 105]: the IC50 was 5.98 µM in assay [1], over 200 µM on GST-Chk1 enzyme and over 200 µM on PDK1 enzyme.

`CN(C)S(=O)(=O)c1ccc(Nc2cc(N[C@H]3CC[C@H](N)CC3)nc3c(C#N)cnn23)cc1` [Example 199]: the IC50 in assay [1] came out at 0.007 µM; on GST-Chk1 enzyme, 0.33 µM; at PDK1 enzyme, 1.35 µM.

For `CC(C)c1cnn2c(Nc3ccc(S(=O)(=O)N(C)C)cc3)cc(C(=O)N3CCC(O)CC3)nc12` [Example 120], the IC50 in assay [1] was 0.594 µM; at GST-Chk1 enzyme it was over 200 µM; at PDK1 enzyme, over 200 µM.

Regarding `CC1(C)CC(Nc2cc(Nc3ccc(S(=O)(=O)Nc4nccs4)cc3)n3ncc(Br)c3n2)CC(C)(C)N1` [Example 166], the results for the IC50 (in assay [1]; on GST-Chk1 enzyme; on PDK1 enzyme) were 16.9 µM, 17 µM and 2.15 µM, respectively.

On to `Cc1cccc(-c2cc(Nc3ccc(S(=O)(=O)Nc4ccccn4)cc3)n3nccc3n2)c1` [Example 18], for which the IC50 in assay [1] was 0.96 µM; at GST-Chk1 enzyme it was 52.4 µM; at PDK1 enzyme, over 200 µM.

Regarding `CC(C)c1cnn2c(Nc3ccc(S(=O)(=O)N(C)C)cc3)cc(OC3CCCN(C)C3)nc12` (stereo not drawn) [Example 75], the IC50 in assay [1] was 0.266 µM; at GST-Chk1 enzyme, 6.28 µM; on PDK1 enzyme, over 200 µM.

With `CN(C)S(=O)(=O)c1cccc(Nc2cc(N[C@H]3CC[C@H](N)CC3)nc3c(Br)cnn23)c1` [Example 94], the values for the IC50 (in assay [1]; at GST-Chk1 enzyme; on PDK1 enzyme) were 0.07 µM, 27 µM and over 200 µM, respectively.

On to `CC(C)COc1cc(Nc2ccc(S(C)(=O)=O)cc2)n2ncc(C(C)C)c2n1` [Example 41], for which the IC50 in assay [1] is 1.2 µM; at GST-Chk1 enzyme, over 200 µM; on PDK1 enzyme, over 200 µM.

For `NC(=O)c1ccc(Nc2cc(Cl)nc3c(Br)cnn23)cc1` [Example 145], the IC50 in assay [1] was 0.08 µM; at GST-Chk1 enzyme, 11 µM; at PDK1 enzyme it was over 50 µM.

Regarding `Oc1ccc(-c2cc(Nc3ccccc3)n3nccc3n2)cc1` [Example 4], the IC50 in assay [1] was 3.76 µM; on GST-Chk1 enzyme, over 200 µM; at PDK1 enzyme it was over 200 µM.

`Cc1cccc(-c2cc(Nc3ccc(S(=O)(=O)N4CCOCC4)cc3)n3nccc3n2)c1` [Example 13]: the values for the IC50 (in assay [1]; on GST-Chk1 enzyme; at PDK1 enzyme) were 1.76 µM, over 200 µM and over 200 µM, respectively.

Take `CC(C)c1cnn2c(Nc3ccc(S(=O)(=O)NCCN(C)C)cc3)cc(Cl)nc12` [Example 77]: the values for the IC50 (in assay [1]; on GST-Chk1 enzyme; on PDK1 enzyme) were 0.039 µM, over 200 µM and 9.49 µM, respectively.

Regarding `CCOC(=O)c1cc(Nc2ccc(S(=O)(=O)N(C)C)cc2)n2ncc(C(C)C)c2n1` [Example 112], the IC50 is 0.274 µM in assay [1], over 200 µM at GST-Chk1 enzyme and over 200 µM on PDK1 enzyme.

On to `NC(=O)c1ccc(Nc2cc(N[C@H]3CC[C@@H](N)CC3)nc3c(Br)cnn23)cc1` [Example 165], for which the IC50 in assay [1] turned out to be 0.026 µM; on GST-Chk1 enzyme it was 0.62 µM; on PDK1 enzyme, 1.2 µM.

As for `CC(C)COc1cc(Nc2ccc(S(=O)(=O)NCCN(C)C)cc2)n2ncc(C(C)C)c2n1` [Example 90], the values for the IC50 (in assay [1]; on GST-Chk1 enzyme; on PDK1 enzyme) were 0.373 µM, 5.42 µM and over 200 µM, respectively.

Turning to `CC(C)c1cnn2c(Nc3ccc(S(=O)(=O)N(C)CCO)cc3)cc(N3CCCC(CO)C3)nc12` (stereo not drawn) [Example 55], the IC50 was 0.27 µM in assay [1], over 200 µM at GST-Chk1 enzyme and over 200 µM on PDK1 enzyme.

As for `CC(C)c1cnn2c(Nc3ccc(S(C)(=O)=O)cc3)cc(N(C)CCO)nc12` [Example 59], the IC50 is 0.768 µM in assay [1], over 200 µM on GST-Chk1 enzyme and over 200 µM on PDK1 enzyme.

For the compound `CC(C)c1cnn2c(Nc3ccc(S(=O)(=O)N(C)C)cc3)cc(N3CCCCC3)nc12` [Example 50], the values for the IC50 (in assay [1]; on GST-Chk1 enzyme; at PDK1 enzyme) were 1.01 µM, over 200 µM and over 200 µM, respectively.

For the compound `CC(C)c1cnn2c(Nc3ccc(S(=O)(=O)N(C)C)cc3)cc(C(=O)NCCN)nc12` [Example 118], the results for the IC50 (in assay [1]; at GST-Chk1 enzyme; at PDK1 enzyme) were 6.76 µM, 36.8 µM and over 200 µM, respectively.

`CN(C)CCNS(=O)(=O)c1ccc(Nc2cc(Cl)nc3c(Br)cnn23)cc1` [Example 135]: the IC50 in assay [1] was 0.081 µM; on GST-Chk1 enzyme, 43 µM; at PDK1 enzyme, over 50 µM.

Consider `CN(C)S(=O)(=O)c1ccc(Nc2cc(Cl)nc3c(Br)cnn23)cc1` [Example 76], for which the results for the IC50 (in assay [1]; at GST-Chk1 enzyme; on PDK1 enzyme) were 0.128 µM, over 200 µM and over 200 µM, respectively.

For the compound `CN(C)S(=O)(=O)c1ccc(Nc2cc(N[C@H]3CC[C@H](N)CC3)nc3c(Cl)cnn23)cc1` [Example 148], the IC50 amounted to 0.004 µM in assay [1], 2 µM at GST-Chk1 enzyme and 1.54 µM on PDK1 enzyme.

With `CNS(=O)(=O)c1ccc(Nc2cc(Cl)nc3c(C(C)C)cnn23)cc1` [Example 46], the results for the IC50 (in assay [1]; at GST-Chk1 enzyme; on PDK1 enzyme) were 0.076 µM, over 200 µM and 109 µM, respectively.

On to `CC(C)c1cnn2c(Nc3ccc(S(=O)(=O)N(C)C)cc3)cc(N(C)c3ccncc3)nc12` [Example 119], for which the IC50 in assay [1] is 22.7 µM; at GST-Chk1 enzyme, over 200 µM; on PDK1 enzyme, over 200 µM.

With `CS(=O)(=O)c1ccc(Nc2cc(N[C@H]3CC[C@@H](N)CC3)nc3c(Br)cnn23)cc1` [Example 164], the IC50 stood at 0.222 µM in assay [1], 0.25 µM on GST-Chk1 enzyme and 4.7 µM on PDK1 enzyme.

Regarding `CC(C)c1cnn2c(Nc3ccc(S(=O)(=O)N(C)C)cc3)cc(NCC(C)(C)CN(C)C)nc12` [Example 106], the IC50 in assay [1] turned out to be 3.34 µM; on GST-Chk1 enzyme it was 18.2 µM; on PDK1 enzyme it was 14.4 µM.

With `CN(C)S(=O)(=O)c1ccc(Nc2cc(N[C@H]3CC[C@@H](N)CC3)nc3c(Br)cnn23)cc1` [Example 140], the results for the IC50 (in assay [1]; on GST-Chk1 enzyme; at PDK1 enzyme) were 3.66 µM, 0.5 µM and 5.29 µM, respectively.

As for `CCNC(=O)c1cc(Nc2ccc(S(=O)(=O)N(C)C)cc2)n2ncc(C(C)C)c2n1` [Example 115], the results for the IC50 (in assay [1]; on GST-Chk1 enzyme; on PDK1 enzyme) were 7.89 µM, over 200 µM and over 200 µM, respectively.

Take `CCN(CC)C(=O)COc1cc(Nc2ccc(S(=O)(=O)N(C)C)cc2)n2ncc(C(C)C)c2n1` [Example 88]: the IC50 in assay [1] is 0.419 µM; at GST-Chk1 enzyme, over 200 µM; on PDK1 enzyme, over 200 µM.

`CC(C)c1cnn2c(Nc3ccc(S(=O)(=O)N(C)C)cc3)cc(OC3CCN(C)C3)nc12` (stereo not drawn) [Example 70]: the figures for the IC50 (in assay [1]; at GST-Chk1 enzyme; at PDK1 enzyme) were 0.32 µM, 79.9 µM and over 200 µM, respectively.

For the compound `CCc1cnn2c(Nc3ccc(S(C)(=O)=O)cc3)cc(N[C@H]3CC[C@@H](N)CC3)nc12` [Example 173], the IC50 amounted to 2.17 µM in assay [1], 4 µM on GST-Chk1 enzyme and 15.2 µM at PDK1 enzyme.

With `CC(C)c1cnn2c(Nc3ccc(S(=O)(=O)N(C)CCO)cc3)cc(OCCN(C)C)nc12` [Example 39], the results for the IC50 (in assay [1]; on GST-Chk1 enzyme; at PDK1 enzyme) were 0.403 µM, 80.8 µM and over 200 µM, respectively.
